According to US20220347206A1 (NPO Petrovax Pharm, LLC, priority 2021, published 2022):
“And” between values parts separate entries of the source, which are not always exact repeats. Identical values can stand only once.

Columns and labels:
COVID-19 [1] = details: human, in vivo
COVID-19 [2] = details: human, in vivo; remark: listed apart in the source
T-cell = details: in vitro; cited from earlier work
natural killer cell = details: in vitro; cited from earlier work
immature DC = details: in vitro; cited from earlier work
leukocytes = details: after penetrating leukocytes by endocytosis; cited from earlier work

**Q.** Which results are given for Azoximer bromide [AZB]?
**A.** Body temperature normalisation (≤37° C.) (COVID-19 [1]): all patients had a normal body temperature; Day 15 OS score 1 (not hospitalized, no limitations on activities), % (COVID-19 [1]): 1.3% and 1 (1.3) %; Day 15 OS score 2 (not hospitalized, limitation on activities), % (COVID-19 [1]): 35.1% and 27 (35.1) %; Day 15 OS score 3 (hospitalized, not requiring supplemental oxygen), % (COVID-19 [1]): 45.5% and 35 (45.5) %; Day 15 OS score 4 (hospitalized, requiring supplemental oxygen), % (COVID-19 [1]): 9 (11.7) %; Day 15 OS score 5 (hospitalized, on noninvasive ventilation or high flow oxygen devices), % (COVID-19 [1]): 3.9% and 3 (3.9) %; Day 15 OS score 6 (hospitalized, on invasive mechanical ventilation or extracorporeal membrane oxygenation), % (COVID-19 [1]): 2.6% and 2 (2.6) %; Day 15 OS score 7 (death), % (COVID-19 [1]): 0 (0.0) %; Day 15 Ordinal Scale score, mean (COVID-19 [1]): 2.90; Day 28 Mortality: alive, % (COVID-19 [1]): 77 (100.0) %; Day 28 Mortality: dead, % (COVID-19 [1]): 0 (0.0) %; Duration of hospitalization, mean (COVID-19 [1]): 19.32 days and 19.13^g days and 19.32^h days; Duration of hospitalization, median (COVID-19 [1]): 19.0 days and 19.0^c days; Improvement probability (NEWS) (COVID-19 [1]): > 80%; Mean (SD) NEWS (COVID-19 [1]): 1.08 (1.18); Mean C-reactive protein (CRP) (COVID-19 [1]): 13.21 mg/L; Mean oxygen saturation (COVID-19 [1]): 96.90% and 96.98%; Mean time to an OS score improving to ≤2 (COVID-19 [1]): 15.9 days; Mean time to vanishing signs of pneumonia (COVID-19 [1]): 18.45 days; Median C-reactive protein (CRP) (COVID-19 [1]): 8.5 mg/L; Number of patients requiring respiratory support (OS=4-6) (COVID-19 [1]): 14 patients; Patients with an OS score of 2 or 3, percent (COVID-19 [1]): 93.5%; Pneumonia presence, number of patients (COVID-19 [1]): 18 patients; Pneumonia presence, percent of patients (COVID-19 [1]): 23.4%; Probability of achieving a normal body temperature (COVID-19 [1]): 90%; Respiratory support requirement (COVID-19 [1]): No patients required respiratory support; SpO2 value of the one patient below the reference range (COVID-19 [1]): 94%; Absolute number of ARI cases, control group versus main (AZB) group (COVID-19 [2]): more than 10 times higher; Afflicted by ARI, number (COVID-19 [2]): 32; Afflicted by ARI, percent (COVID-19 [2]): 13.1%; Afflicted by acute respiratory illness (ARI), percent (COVID-19 [2]): 0.3%; Cases of ARI (COVID-19 [2]): 3 cases; Cases of COVID-19 (COVID-19 [2]): 1 case; Confirmed diagnosis of COVID-19 (PCR or antibody test), number (COVID-19 [2]): 2; Confirmed diagnosis of COVID-19 (PCR or antibody test), percent (COVID-19 [2]): 0.3%; Confirmed diagnosis of COVID-19 (PCR test data), number (COVID-19 [2]): 6; Confirmed diagnosis of COVID-19 (PCR test data), percent (COVID-19 [2]): 2.4%; Number of ARI cases, control group versus main (AZB) group (COVID-19 [2]): more than 30 times; Participants who developed pneumonia, percent (reported ARI cases) (COVID-19 [2]): 0%; T-cell proliferation (T-cell): induce T-cell proliferation; Natural killer cell degranulation (natural killer cell): increase natural killer cell degranulation; Immature DC expansion (immature DC): increase immature DC expansion; Intracellular hydrogen peroxide (leukocytes): significant dose-dependent increases
